Structures are written as SMILES.

The target of assay [1] is T1, IDO1 (Homo sapiens (Human), UniProt P14902). Nature of the assay: IDO1 Human Whole Blood Assay. The following applies: LPS and IFNγ 100 ng/mL, kynurenine by LC/MS/MS. In kind it is cell-based. The method, then:
IDO1 Human Whole Blood Assay
LPS and IFNγ was prepared in RPMI to a 10× of final conc. (1000 ng/mL), final concentration is 100 ng/mL.
Human whole blood was drawn in sodium heparin coated tubes from healthy internal donors. Two hundred fourty μL of blood was transferred to each of the wells of a v-bottom 96 well plate. Thirty μL of compound was transferred from intermediate dilution plate, and incubated for 15 min. […] from stimulants was then transferred to blood and mixed thoroughly. Plate was covered with breathable membrane and incubated at 37° C. for overnight (18 h).
On day 2 isotope labeled standard of kunurenine and tryptophan was made in water at 10× concentration and 30 μL was added to the blood at 3 μM final concentration. The assay plates were centrifuged at 300×G for 10 min with no brake to separate plasma from red blood cells. Sixty μL of plasma samples was removed without disturbing red blood cells. Plasma was diluted with RPMI in 1:1 ratio and proteins were precipitated out with two volume of Acetonitrile. The plates was centrifuged at 4000×G for 60 min. Twenty μL of supernatant was carefully transferred to a 384 well plate contain 40 μL of 0.1% formic acid in water and analysed by LC/MS/MS.
LC/MS/MS analyses were performed using Thermo Fisher's LX4-TSQ Quantum Ultra system. This system consists of four Agilent binary high-performance liquid chromatography (HPLC) pumps and a TSQ Quantum Ultra triple quadrupole MS/MS instrument. For each sample, 5 μL were injected onto an Atlantis T3 column column (2.1 mm×150 mm, 3 μm particle size) from Waters. The mobile phase gradient pumped at 0.8 mL/min was used to elute the analytes from the column at 25° C. The elution started at 0% B increasing linearly to 25% B at 6.5 min, holding at 25% for 1 min, re-equilibrating to 10 min. Mobile phase A consisted of 0.1% formic acid in water. Mobile phase B consisted of 0.1% of formic acid in acetonitrile. Data was acquired in positive mode using a HESI interface. The operational parameters for the TSQ Quantum Ultra instrument were a spray voltage of 4000 V, capillary temperature of 380° C., vaporizer temperature 400° C., shealth gas 60 arbitrary units, Aux gas 20 arbitrary units, tube lens 85 and collision gas 1.2 mTorr. SRM chromatograms of kynurenine (Q1: 209.2>Q3:94.0) and internal standard (Q1: 215.3>Q3:98.2) were collected for 90 sec. The peak area was integrated by Xcalibur Quan software. The ratios between the kynurenine generated in the reaction and 2D6-Kynurenine spiked-in internal standard were used to generate percentage inhibition and IC50 values. Compounds were titrated and IC50's were calculated by 4 parameter sigmoidal curve fitting formula.

The target of assay [2] is T1, IDO1. The assay is described as follows: IDO1 Cellular Assay in Frozen HEK293 Cells Transiently Transfected with Human IDO1. The class given is cell-based. The following applies: HEK293 cells transiently transfected with human IDO1; read-out: IDO1 HEK293 Cell Assay, IC50.
For assay [3], the target named is T1, IDO1. The assay is described as follows: IDO1 Enzyme Assay. To be noted: HIS-tagged recombinant IDO1, 40 nM.
Assay [4] concerns the target T1, IDO1. Nature of the assay: IDO1 Cellular Assay in Hela Cells Stimulated with IFNγ. In kind it is cell-based. The following applies: Hela cells stimulated with IFNγ 100 ng/mL; read-out: IDO1 HELA Cell Assay, IC50.
Setting [5] is: read-out: IDO1 Enzyme Assay, IC50.

T1 sequence (P14902 whole entry): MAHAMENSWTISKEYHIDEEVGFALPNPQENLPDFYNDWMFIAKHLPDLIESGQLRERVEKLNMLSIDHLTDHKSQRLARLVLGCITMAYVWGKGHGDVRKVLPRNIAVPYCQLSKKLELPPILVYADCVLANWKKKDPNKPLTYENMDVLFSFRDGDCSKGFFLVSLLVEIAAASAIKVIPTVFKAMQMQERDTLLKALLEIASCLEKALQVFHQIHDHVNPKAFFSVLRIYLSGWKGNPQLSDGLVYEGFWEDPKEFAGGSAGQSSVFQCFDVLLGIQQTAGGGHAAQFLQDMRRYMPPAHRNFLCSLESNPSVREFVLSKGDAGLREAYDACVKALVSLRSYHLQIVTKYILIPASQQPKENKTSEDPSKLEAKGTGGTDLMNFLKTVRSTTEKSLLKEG

One may read the IC50 as the concentration that gives 50% inhibition. Turning to `O=c1ccc(CSc2nonc2/C(=N/O)Nc2ccc(F)c(Br)c2)n[nH]1` [Example 35, N-(3-bromo-4-fluorophenyl)-N′-hydroxy-4-(((6-oxo-1,6-dihydropyridazin-3-yl)methyl)thio)-1,2,5-oxadiazole-3-carboximidamide], the half-inhibitory concentration (IC50) at IDO1 [1] was 923 nM; at IDO1 [2] it was 77.7 nM; on IDO1 [3] (setting [5]), 34.9 nM; on IDO1 [4], 64.6 nM.
On to `O=C(CSc1nonc1/C(=N/O)Nc1ccc(F)c(Br)c1)N[C@@H]1C[C@@H](O)[C@@H](O)C1` [Example 144, 2-({4-[N-(3-bromo-4-fluorophenyl)-N′-hydroxycarbamimidoyl]-1,2,5-oxadiazol-3-yl}sulfanyl)-N-[(1s,3R,4S)-3,4-dihydroxycyclopentyl]acetamide], for which the IC50 is 3990 nM against IDO1 [1], 549 nM on IDO1 [2] and 75.8 nM on IDO1 [3] (setting [5]).
Turning to `O=c1cccc(CSc2nonc2/C(=N/O)Nc2ccc(F)c(Br)c2)[nH]1` [Example 86, N-(3-bromo-4-fluorophenyl)-N′-hydroxy-4-{[(6-oxo-1,6-dihydropyridin-2-yl)methyl]sulfanyl}-1,2,5-oxadiazole-3-carboximidamide], the half-maximal inhibitory concentration (IC50) came out at 4120 nM on IDO1 [1], 41.6 nM on IDO1 [2], 32.3 nM at IDO1 [3] (setting [5]) and 15.7 nM on IDO1 [4].
For `CC(C)(O)C(O)CSc1nonc1/C(=N/O)Nc1ccc(F)c(Br)c1` (stereo not shown) [Example 30, N-(3-bromo-4-fluorophenyl)-4-((2,3-dihydroxy-3-methylbutyl)thio)-N′-hydroxy-1,2,5-oxadiazole-3-carboximidamide], the IC50 against IDO1 [1] was 891 nM; on IDO1 [2], 29.4 nM; at IDO1 [3] (IDO1 Enzyme Assay, IC50, nM) it was 85.3 nM; on IDO1 [4] it was 84.2 nM.
Turning to `CNc1c(NCCSc2nonc2/C(=N/O)Nc2ccc(F)c(Br)c2)c(=O)c1=O` [Example 36, N-(3-bromo-4-fluorophenyl)-N′-hydroxy-4-((2-((2-(methylamino)-3,4-dioxocyclobut-1-en-1-yl)amino)ethyl)thio)-1,2,5-oxadiazole-3-carboximidamide], the figures for the IC50 at IDO1 [1], at IDO1 [2] and at IDO1 [4] were 7110 nM, 206 nM and 94.8 nM, respectively.
In the case of `COCCNS(=O)(=O)NCCSc1nonc1/C(=N/O)Nc1ccc(F)c(Br)c1` [Example 31, N-(3-bromo-4-fluorophenyl)-N′-hydroxy-4-((2-((N-(2-methoxyethyl)sulfamoyl)amino)ethyl)thio)-1,2,5-oxadiazole-3-carboximidamide], the IC50 on IDO1 [1] came to 643 nM; on IDO1 [2], 10.2 nM; at IDO1 [3] (setting [5]) it was 43.4 nM; on IDO1 [4] it was 37.4 nM.
For `COC(=O)CNP(=O)(CCSc1nonc1/C(=N/O)Nc1ccc(F)c(Br)c1)NCC(=O)OC` [Example 44, Dimethyl 2,2′-(((2-((4-(N-(3-bromo-4-fluorophenyl)-N′-hydroxycarbamimidoyl)-1,2,5-oxadiazol-3-yl)thio)ethyl)phosphoryl)bis(azanediyl))(Z)-diacetate] the same measures were 130 nM, 17.5 nM, 18.1 nM and 8.6 nM.
Taken in the same sequence, the figures for `N#Cc1cc(N/C(=N\O)c2nonc2SCCNS(=O)(=O)C2CC2)ccc1F` [Example 178, N-(3-cyano-4-fluorophenyl)-4-({2-[(cyclopropylsulfonyl)amino]ethyl}sulfanyl)-N′-hydroxy-1,2,5-oxadiazole-3-carboximidamide] were 1080 nM, 35.5 nM, 60.8 nM and 57.2 nM.
Taken in the same sequence, the figures for `COC(=O)CNP(=O)(CSc1nonc1/C(=N/O)Nc1ccc(F)c(Br)c1)NCC(=O)OC` [Example 120, methyl 6-[({4-[N-(3-bromo-4-fluorophenyl)-N′-hydroxycarbamimidoyl]-1,2,5-oxadiazol-3-yl}sulfanyl)methyl]-3-oxo-2-oxa-5,7-diaza-6-phosphanonan-9-oate 6-oxide] were 155 nM, 13.4 nM, 14 nM and 28.4 nM.
For the molecule `Cn1c(CSc2nonc2/C(=N/O)Nc2ccc(F)c(Br)c2)n[nH]c1=O` [Example 98, N-(3-bromo-4-fluorophenyl)-N′-hydroxy-4-{[(4-methyl-5-oxo-4,5-dihydro-1H-1,2,4-triazol-3-yl)methyl]sulfanyl}-1,2,5-oxadiazole-3-carboximidamide], the IC50 is 635 nM against IDO1 [1], 83 nM on IDO1 [2], 37.8 nM on IDO1 [3] (setting [5]) and 57.1 nM at IDO1 [4].
For `CC(=O)N[C@H](CO)CSc1nonc1/C(=N/O)Nc1ccc(F)c(Br)c1` [Example 173, N-[(1R)-2-({4-[N-(3-bromo-4-fluorophenyl)-N′-hydroxycarbamimidoyl]-1,2,5-oxadiazol-3-yl}sulfanyl)-1-(hydroxymethyl)ethyl]acetamide] the same measures were 827 nM, 155 nM, 93.7 nM and 246 nM.
Turning to `O=C1CC[C@@H](CSc2nonc2/C(=N/O)Nc2ccc(F)c(Br)c2)N1` [Example 84, N-(3-bromo-4-fluorophenvl)-N′-hydroxy-4-({[(2S)-5-oxopyrrolidin-2-yl]methyl}sulfanyl)-1,2,5-oxadiazole-3-carboximidamide], the IC50 is 184 nM at IDO1 [1], 33.1 nM at IDO1 [2], 37.5 nM on IDO1 [3] (setting [5]) and 27.2 nM on IDO1 [4].
Regarding `CN(C)CCSc1nsnc1/C(=N/O)Nc1ccc(F)c(Br)c1` [Example 209, N-(3-bromo-4-fluorophenyl)-4-{[2-(dimethylamino)ethyl]sulfanyl}-N′-hydroxy-1,2,5-thiadiazole-3-carboximidamide], the IC50 came to 770 nM on IDO1 [2], 1280 nM at IDO1 [3] (setting [5]) and 968 nM on IDO1 [4].
Taken in the same sequence, the figures for `CC(=O)NCCSc1nonc1/C(=N/O)Nc1ccc(F)c(C(F)(F)F)c1` [Example 49, N-{2-[(4-{N-[4-fluoro-3-(trifluoromethyl)phenyl]-N′-hydroxycarbamimidoyl}-1,2,5-oxadiazol-3-yl)sulfanyl]ethyl}acetamide] were 31.7 nM, 65.3 nM and 11.9 nM.
For `CC(=O)NCCSc1nonc1/C(=N/O)Nc1ccc(F)c(OC(F)(F)F)c1` [Example 52, N-{2-[(4-{N-[4-fluoro-3-(trifluoromethoxy)phenyl]-N′-hydroxycarbamimidoyl}-1,2,5-oxadiazol-3-yl)sulfanyl]ethyl}acetamide] the same measures were 177 nM, 356 nM and 144 nM.
For `Cn1c(CSc2nonc2/C(=N/O)Nc2ccc(F)c(Cl)c2)n[nH]c1=O` [Example 133, N-(3-chloro-4-fluorophenyl)-N′-hydroxy-4-{[(4-methyl-5-oxo-4,5-dihydro-1H-1,2,4-triazol-3-yl)methyl]sulfanyl}-1,2,5-oxadiazole-3-carboximidamide] the same measures were 226 nM, 71.5 nM and 235 nM.
As for `OC[C@H](O)CSc1nonc1/C(=N/O)Nc1ccc(F)c(C(F)(F)F)c1` [Example 166, 4-{[(2S)-2,3-dihydroxypropyl]sulfanyl}-N-[4-fluoro-3-(trifluoromethyl)phenyl]-N′-hydroxy-1,2,5-oxadiazole-3-carboximidamide], the IC50 is 114 nM on IDO1 [2], 126 nM on IDO1 [3] (setting [5]) and 138 nM at IDO1 [4].
Taken in the same sequence, the figures for `CCOC(=O)NC(=O)NCCSc1nonc1C(=NO)Nc1ccc(F)c(Br)c1` [Example 128, ethyl {[2-({4-[N-(3-bromo-4-fluorophenyl)-N′-hydroxycarbamimidoyl]-1,2,5-oxadiazol-3-yl}sulfanyl)ethyl]carbamoyl} carbamate] were 149 nM, 110 nM and 169 nM.

These data come from US10538497B2, “Compounds as indoleamine 2,3-dioxygenase inhibitors” (Merck Sharp & Dohme Corp., priority 2015, dated 2020).
